Measurements published in PubChem BioAssay AID1918999 (Molecular Pharmacology Branch, DTP, NCI, 2023).

Test system: 556581-035-R-J1-PDC complex spheroid growth
Assay: Anticancer human tumor 556581-035-R-J1-PDC patient-derived ovarian carcinoma cell line growth inhibition [AhR]
Conditions: for IC50: curve of first compound; for viability, T/C: stronger effect = lower value
How it was run: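 Spheroids combined tumor cells with HUVEC endothelial cells and human MSCs as stroma. AhR antagonists were paired with standard or investigational drugs, each dosed in half-log steps down from near clinical Cmax, or from 10 microM where Cmax was unknown.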

[1] = second compound 0.1 µM, first compound 0.0316 µM
[2] = second compound 0.1 µM, first compound 0.1 µM
[3] = second compound 0.1 µM, first compound 0.316 µM
[4] = second compound 0.1 µM, first compound 1 µM
[5] = second compound 0.1 µM, first compound 3.16 µM
[6] = second compound 0.1 µM, first compound 10 µM
[7] = second compound 0.316 µM, first compound 0.0316 µM
[8] = second compound 0.316 µM, first compound 0.1 µM
[9] = second compound 0.316 µM, first compound 0.316 µM
[10] = second compound 0.316 µM, first compound 1 µM
[11] = second compound 0.316 µM, first compound 3.16 µM
[12] = second compound 0.316 µM, first compound 10 µM
[13] = second compound 1 µM, first compound 0.0316 µM
[14] = second compound 1 µM, first compound 0.1 µM
[15] = second compound 1 µM, first compound 0.316 µM
[16] = second compound 1 µM, first compound 1 µM
[17] = second compound 1 µM, first compound 3.16 µM
[18] = second compound 1 µM, first compound 10 µM
[19] = second compound 3.16 µM, first compound 0.0316 µM
[20] = second compound 3.16 µM, first compound 0.1 µM
[21] = second compound 3.16 µM, first compound 0.316 µM
[22] = second compound 3.16 µM, first compound 1 µM
[23] = second compound 3.16 µM, first compound 3.16 µM
[24] = second compound 3.16 µM, first compound 10 µM
[25] = second compound 10 µM, first compound 0.0316 µM
[26] = second compound 10 µM, first compound 0.1 µM
[27] = second compound 10 µM, first compound 0.316 µM
[28] = second compound 10 µM, first compound 1 µM
[29] = second compound 10 µM, first compound 3.16 µM
[30] = second compound 10 µM, first compound 10 µM
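Throughout, for viability, T/C: compound exposure lasted 7 days; 100% = DMSO vehicle control growth.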

CC(C)CC(NC(=O)C(Cc1ccccc1)NC(=O)c1cnccn1)B(O)O (stereo not given) + Cc1cncc(-c2nc(NCCc3c[nH]c4ccccc34)c3ncn(C(C)C)c3n2)c1
IC50 (second compound 0.1 µM): 5.84 nM
IC50 (second compound 0.316 µM): 5.98 nM
IC50 (second compound 1 µM): 6.08 nM
IC50 (second compound 3.16 µM): 5.93 nM
IC50 (second compound 10 µM): 5.16 nM
viability, T/C (second compound 0.1 µM, first compound 0.000949 µM): 96.7%
viability, T/C (second compound 0.1 µM, first compound 0.003 µM): 103%
viability, T/C (second compound 0.1 µM, first compound 0.00949 µM): 13.8%
viability, T/C (second compound 0.1 µM, first compound 0.03 µM): 0.14%
viability, T/C (second compound 0.1 µM, first compound 0.0949 µM): 0.08%
viability, T/C (second compound 0.1 µM, first compound 0.3 µM): 0.23%
viability, T/C (second compound 0.316 µM, first compound 0.000949 µM): 101%
viability, T/C (second compound 0.316 µM, first compound 0.003 µM): 113%
viability, T/C (second compound 0.316 µM, first compound 0.00949 µM): 12%
viability, T/C (second compound 0.316 µM, first compound 0.03 µM): 1.1%
viability, T/C (second compound 0.316 µM, first compound 0.0949 µM): 0.12%
viability, T/C (second compound 0.316 µM, first compound 0.3 µM): 1.12%
viability, T/C (second compound 1 µM, first compound 0.000949 µM): 106%
viability, T/C (second compound 1 µM, first compound 0.003 µM): 110%
viability, T/C (second compound 1 µM, first compound 0.00949 µM): 13.4%
viability, T/C (second compound 1 µM, first compound 0.03 µM): 0.14%
viability, T/C (second compound 1 µM, first compound 0.0949 µM): 0.09%
viability, T/C (second compound 1 µM, first compound 0.3 µM): 0.67%
viability, T/C (second compound 3.16 µM, first compound 0.000949 µM): 103%
viability, T/C (second compound 3.16 µM, first compound 0.003 µM): 105%
viability, T/C (second compound 3.16 µM, first compound 0.00949 µM): 12.7%
viability, T/C (second compound 3.16 µM, first compound 0.03 µM): 1.05%
viability, T/C (second compound 3.16 µM, first compound 0.0949 µM): 0.7%
viability, T/C (second compound 3.16 µM, first compound 0.3 µM): 2.06%
viability, T/C (second compound 10 µM, first compound 0.000949 µM): 89.9%
viability, T/C (second compound 10 µM, first compound 0.003 µM): 87.8%
viability, T/C (second compound 10 µM, first compound 0.00949 µM): 7.45%
viability, T/C (second compound 10 µM, first compound 0.03 µM): 0.99%
viability, T/C (second compound 10 µM, first compound 0.0949 µM): 0.21%
viability, T/C (second compound 10 µM, first compound 0.3 µM): 1.28%

COc1cc(Nc2ncc3c(n2)-c2ccc(Cl)cc2C(c2c(F)cccc2OC)=NC3)ccc1C(=O)O + Cc1cncc(-c2nc(NCCc3c[nH]c4ccccc34)c3ncn(C(C)C)c3n2)c1
IC50 (second compound 0.1 µM): > 10000 nM
IC50 (second compound 0.316 µM): > 10000 nM
IC50 (second compound 1 µM): > 10000 nM
IC50 (second compound 3.16 µM): > 10000 nM
IC50 (second compound 10 µM): > 10000 nM
viability, T/C [1]: 97.2%
viability, T/C [2]: 83.4%
viability, T/C [3]: 79.5%
viability, T/C [4]: 71.2%
viability, T/C [5]: 71.1%
viability, T/C [6]: 58.4%
viability, T/C [7]: 91.5%
viability, T/C [8]: 87.9%
viability, T/C [9]: 72.5%
viability, T/C [10]: 76.8%
viability, T/C [11]: 62.1%
viability, T/C [12]: 62.3%
viability, T/C [13]: 84.9%
viability, T/C [14]: 81.9%
viability, T/C [15]: 78.7%
viability, T/C [16]: 72.6%
viability, T/C [17]: 67.8%
viability, T/C [18]: 65.9%
viability, T/C [19]: 86.2%
viability, T/C [20]: 76.9%
viability, T/C [21]: 77.2%
viability, T/C [22]: 73.2%
viability, T/C [23]: 72.8%
viability, T/C [24]: 65.9%
viability, T/C [25]: 89.4%
viability, T/C [26]: 74.1%
viability, T/C [27]: 78.1%
viability, T/C [28]: 70.7%
viability, T/C [29]: 71%
viability, T/C [30]: 75.2%

NS(=O)(=O)OCC1CC(n2ccc3c(NC4CCc5ccccc54)ncnc32)CC1O (stereo not given) + Cc1cncc(-c2nc(NCCc3c[nH]c4ccccc34)c3ncn(C(C)C)c3n2)c1
IC50 (second compound 0.1 µM): > 10000 nM
IC50 (second compound 0.316 µM): > 10000 nM
IC50 (second compound 1 µM): > 10000 nM
IC50 (second compound 3.16 µM): > 10000 nM
IC50 (second compound 10 µM): 2670 nM
viability, T/C [1]: 109%
viability, T/C [2]: 102%
viability, T/C [3]: 95.9%
viability, T/C [4]: 90.5%
viability, T/C [5]: 81.1%
viability, T/C [6]: 62.5%
viability, T/C [7]: 98.1%
viability, T/C [8]: 104%
viability, T/C [9]: 92.7%
viability, T/C [10]: 85.8%
viability, T/C [11]: 72.7%
viability, T/C [12]: 62.2%
viability, T/C [13]: 112%
viability, T/C [14]: 120%
viability, T/C [15]: 87.7%
viability, T/C [16]: 81.6%
viability, T/C [17]: 74%
viability, T/C [18]: 63.8%
viability, T/C [19]: 99.9%
viability, T/C [20]: 119%
viability, T/C [21]: 96.4%
viability, T/C [22]: 84.8%
viability, T/C [23]: 70.5%
viability, T/C [24]: 49.5%
viability, T/C [25]: 87.8%
viability, T/C [26]: 95.5%
viability, T/C [27]: 71.9%
viability, T/C [28]: 71%
viability, T/C [29]: 45.6%
viability, T/C [30]: 27.6%

Nc1ccccc1NC(=O)c1ccc(CNC(=O)OCc2cccnc2)cc1 + Cc1cncc(-c2nc(NCCc3c[nH]c4ccccc34)c3ncn(C(C)C)c3n2)c1
IC50 (second compound 0.1 µM): 2770 nM
IC50 (second compound 0.316 µM): 2420 nM
IC50 (second compound 1 µM): 2530 nM
IC50 (second compound 3.16 µM): 1940 nM
IC50 (second compound 10 µM): 791 nM
viability, T/C [1]: 106%
viability, T/C [2]: 100%
viability, T/C [3]: 93.7%
viability, T/C [4]: 76.3%
viability, T/C [5]: 46.2%
viability, T/C [6]: 19.3%
viability, T/C [7]: 107%
viability, T/C [8]: 121%
viability, T/C [9]: 102%
viability, T/C [10]: 78.5%
viability, T/C [11]: 42%
viability, T/C [12]: 19.7%
viability, T/C [13]: 108%
viability, T/C [14]: 107%
viability, T/C [15]: 89.5%
viability, T/C [16]: 77%
viability, T/C [17]: 42.2%
viability, T/C [18]: 22.2%
viability, T/C [19]: 93%
viability, T/C [20]: 99.2%
viability, T/C [21]: 98.7%
viability, T/C [22]: 67%
viability, T/C [23]: 37.6%
viability, T/C [24]: 18.1%
viability, T/C [25]: 79%
viability, T/C [26]: 87%
viability, T/C [27]: 64.5%
viability, T/C [28]: 47.1%
viability, T/C [29]: 22.8%
viability, T/C [30]: 14.7%

O=C(C=Cc1cccc(S(=O)(=O)Nc2ccccc2)c1)NO + Cc1cncc(-c2nc(NCCc3c[nH]c4ccccc34)c3ncn(C(C)C)c3n2)c1
IC50 (second compound 0.1 µM): 1480 nM
IC50 (second compound 0.316 µM): 1680 nM
IC50 (second compound 1 µM): 1420 nM
IC50 (second compound 3.16 µM): 1460 nM
IC50 (second compound 10 µM): 938 nM
viability, T/C [1]: 106%
viability, T/C [2]: 118%
viability, T/C [3]: 90.2%
viability, T/C [4]: 58%
viability, T/C [5]: 32%
viability, T/C [6]: 3.96%
viability, T/C [7]: 102%
viability, T/C [8]: 104%
viability, T/C [9]: 87.3%
viability, T/C [10]: 69.6%
viability, T/C [11]: 27.9%
viability, T/C [12]: 3.92%
viability, T/C [13]: 111%
viability, T/C [14]: 114%
viability, T/C [15]: 82.2%
viability, T/C [16]: 60.9%
viability, T/C [17]: 28.9%
viability, T/C [18]: 5.09%
viability, T/C [19]: 108%
viability, T/C [20]: 101%
viability, T/C [21]: 87%
viability, T/C [22]: 62.5%
viability, T/C [23]: 26.9%
viability, T/C [24]: 6.45%
viability, T/C [25]: 92.2%
viability, T/C [26]: 88.8%
viability, T/C [27]: 80.1%
viability, T/C [28]: 43.5%
viability, T/C [29]: 24.8%
viability, T/C [30]: 4.13%

O=C(c1cc(Cc2n[nH]c(=O)c3ccccc23)ccc1F)N1CCN(C(=O)C2CC2)CC1 + Cc1cncc(-c2nc(NCCc3c[nH]c4ccccc34)c3ncn(C(C)C)c3n2)c1
IC50 (second compound 0.1 µM): > 10000 nM
IC50 (second compound 0.316 µM): > 10000 nM
IC50 (second compound 1 µM): > 10000 nM
IC50 (second compound 3.16 µM): > 10000 nM
IC50 (second compound 10 µM): > 10000 nM
viability, T/C [1]: 98.4%
viability, T/C [2]: 107%
viability, T/C [3]: 101%
viability, T/C [4]: 89.6%
viability, T/C [5]: 94.6%
viability, T/C [6]: 82%
viability, T/C [7]: 112%
viability, T/C [8]: 105%
viability, T/C [9]: 104%
viability, T/C [10]: 91.2%
viability, T/C [11]: 91.9%
viability, T/C [12]: 78.9%
viability, T/C [13]: 108%
viability, T/C [14]: 102%
viability, T/C [15]: 99.3%
viability, T/C [16]: 95.9%
viability, T/C [17]: 98.8%
viability, T/C [18]: 90.2%
viability, T/C [19]: 104%
viability, T/C [20]: 108%
viability, T/C [21]: 95.3%
viability, T/C [22]: 89.2%
viability, T/C [23]: 94.3%
viability, T/C [24]: 81.3%
viability, T/C [25]: 90%
viability, T/C [26]: 95.4%
viability, T/C [27]: 95.2%
viability, T/C [28]: 86.2%
viability, T/C [29]: 92.7%
viability, T/C [30]: 83.2%
